Assay results: patent publication US11780832B2, “Lactivicin compounds, their preparation and use as antibacterial agents” (priority 2021, dated 2023)
In brackets after ≈: the same amount, converted by molar mass. Like-named read-outs stand apart in the source and are kept apart here.

Key:
Experiment in all cases: MIC, CLSI broth microdilution
Format in all cases: cell-based
[1] = test system: Acinetobacter baumannii ATCC 19606; conditions: ATCC19606
Experimental: (§1) Gram-negative and Gram-positive bacterial strains used during the in vitro minimum inhibitory concentration (MIC) determination were obtained either from the American Type Culture Collection (ATCC) or from clinical specimens. All strains were characterized genotypically and the respective antibiotic resistance markers for each strain were identified.
(§2) Isolates were sub-cultured onto appropriate media and stocked in skim milk at −80° C. Following two subcultures from frozen stock, in vitro antimicrobial susceptibility testing was performed using the Clinical and Laboratory Standards Institute (CLSI) broth microdilution method. Briefly, fresh cultures were suspended in culture media to give a final stock inoculum size of 5×10^7 colony forming units per milliliter of broth (CFU/mL). […] 100 μL of the stock solutions were added to the first wells in a 96-well plate and were then diluted using a 2-fold dilution method to give a range of 32-0.025 μg/mL. 100 μL of the bacterial suspensions were then added to the 96-well plates to give a final working inoculum size of 5×10^5 CFU/mL. The final compound concentration range was 16-0.0125 μg/mL. […] MICs for comparator agents were determined using custom-designed, in-house prepared 96-well broth microdilution panels.

[2] = test system: Citrobacter freundii species complex OXA-181
Experimental: as §1, §2

[3] = test system: Enterobacter cloacae species complex NDM-1
Experimental: as §1, §2

[4] = test system: Escherichia coli ATCC 25922; conditions: ATCC25922
Experimental: as §1, §2

[5] = test system: Escherichia coli CMY-2; conditions: CMY2
Experimental: as §1, §2

[6] = test system: Escherichia coli CTX-M-15; conditions: CTXM15
Experimental: as §1, §2

[7] = test system: Escherichia coli Empty pSMART plasmid
Experimental: as §1, §2

[8] = test system: Escherichia coli Isogenic TEM-10
Experimental: as §1, §2

[9] = test system: Escherichia coli Isogenic TEM-26
Experimental: as §1, §2

[10] = test system: Escherichia coli SHV-12; conditions: SHV12
Experimental: as §1, §2

[11] = test system: Escherichia coli pSMART_Cfreundii_AmpC
Experimental: as §1, §2

[12] = test system: Escherichia coli pSMART_Ecloacae_AmpC
Experimental: as §1, §2

[13] = test system: Klebsiella aerogenes VIM-1, SHV-12
Experimental: as §1, §2

[14] = test system: Klebsiella oxytoca KPC-2, TEM-1
Experimental: as §1, §2

[15] = test system: Klebsiella pneumoniae KPC-2; conditions: KPC2
Experimental: as §1, §2

[16] = test system: Klebsiella pneumoniae KPC-3
Experimental: as §1, §2

[17] = test system: Klebsiella pneumoniae OXA-163, OXA-1_OXA-30, SHV-1, TEM-1
Experimental: as §1, §2

[18] = test system: Klebsiella pneumoniae OXA-48, SHV-1
Experimental: as §1, §2

[19] = test system: Klebsiella pneumoniae SHV-12
Experimental: as §1, §2

[20] = test system: Pseudomonas aeruginosa ATCC 27853; conditions: ATCC27853
Experimental: as §1, §2

[21] = test system: Pseudomonas aeruginosa AmpC overexpressed
Experimental: as §1, §2

[22] = test system: Pseudomonas aeruginosa OprD negative
Experimental: as §1, §2

[23] = test system: Serratia marcescens AmpC overexpressed
Experimental: as §1, §2

[24] = test system: Serratia marcescens SME-2; conditions: SME2
Experimental: as §1, §2

[25] = Citrobacter freundii species complex, OXA-181, read-out: MIC

Compound | MIC [1] [µg/mL] | MIC [3] [µg/mL] | MIC [4] [µg/mL] | MIC [5] [µg/mL] | MIC [6] [µg/mL] | MIC [7] [µg/mL] | MIC [8] [µg/mL] | MIC [9] [µg/mL] | MIC [10] [µg/mL] | MIC [11] [µg/mL] | MIC [12] [µg/mL] | MIC [13] [µg/mL] | MIC [15] [µg/mL] | MIC [17] [µg/mL] | MIC [18] [µg/mL] | MIC [20] [µg/mL] | MIC [21] [µg/mL] | MIC [22] [µg/mL] | MIC [23] [µg/mL] | MIC [24] [µg/mL] | other results
CN1CCC(O/N=C(\C(=O)N[C@H]2CON(C3(C(=O)O)C[C@H](N4C(=O)c5cc(O)c(O)cc5C4=O)C(=O)O3)C2=O)c2csc(N)n2)(C(=O)O)CC1 (stereo partly drawn) [Cmpd 9, 4-({(Z)-[1-(2-amino-1,3-thiazol-4-yl)-2-({(4S)-2-[(4S)-2-carboxy-4-(5,6-dihydroxy-1,3-dioxo-1,3-dihydro-2H-isoindol-2-yl)-5-oxooxolan-2-yl]-3-oxo-1,2-oxazolidin-4-yl}amino)-2-oxoethylidene]amino}oxy)-1-methylpiperidine-4-carboxylic acid] | 2 (≈ 2.79 µM) | 8 (≈ 11.1 µM) | 0.5 (≈ 0.697 µM) | 2 (≈ 2.79 µM) | 4 (≈ 5.57 µM) | 0.12 (≈ 0.167 µM) | 0.12 (≈ 0.167 µM) | 0.12 (≈ 0.167 µM) | 2 (≈ 2.79 µM) | 0.25 (≈ 0.348 µM) | 0.25 (≈ 0.348 µM) | 0.5 (≈ 0.697 µM) | 0.25 (≈ 0.348 µM) | 0.25 (≈ 0.348 µM) | 0.12 (≈ 0.167 µM) | 4 (≈ 5.57 µM) | > 16 | > 16 | 4 (≈ 5.57 µM) | 0.5 (≈ 0.697 µM) | MIC [2, 25]: 0.25 µg/mL (≈ 0.348 µM); MIC ([14]; KPC-2, TEM-1, read-out: MIC): 0.03 µg/mL (≈ 0.0418 µM); MIC ([16]; KPC3, KPC-3, read-out: MIC): 0.25 µg/mL (≈ 0.348 µM); MIC ([19]; SHV12, SHV-12, read-out: MIC): 0.12 µg/mL (≈ 0.167 µM)
CC(C)(O/N=C(\C(=O)N[C@H]1CON(C2(C(=O)O)C[C@H](N3C(=O)c4cc(O)c(O)nc4C3=O)C(=O)O2)C1=O)c1csc(N)n1)C(=O)O (stereo partly drawn) [Cmpd 36, (4S)-2-[(4S)-4-{[(2Z)-2-(2-amino-1,3-thiazol-4-yl)-2-{[(2-carboxypropan-2-yl)oxy]imino}acetyl]amino}-3-oxo-1,2-oxazolidin-2-yl]-4-(2,3-dihydroxy-5,7-dioxo-5,7-dihydro-6H-pyrrolo[3,4-b]pyridin-6-yl)-5-oxooxolane-2-carboxylic acid] | 0.12 (≈ 0.181 µM) | 0.25 (≈ 0.377 µM) | 0.06 (≈ 0.0904 µM) | 1 (≈ 1.51 µM) | 2 (≈ 3.01 µM) | 0.06 (≈ 0.0904 µM) | 0.0149 (≈ 0.0225 µM) | 0.0149 (≈ 0.0225 µM) | 1 (≈ 1.51 µM) | 0.06 (≈ 0.0904 µM) | 0.03 (≈ 0.0452 µM) | 2 (≈ 3.01 µM) | 0.12 (≈ 0.181 µM) | 0.06 (≈ 0.0904 µM) | 0.0149 (≈ 0.0225 µM) | 0.12 (≈ 0.181 µM) | 0.5 (≈ 0.754 µM) | 0.12 (≈ 0.181 µM) | 0.06 (≈ 0.0904 µM) | 0.06 (≈ 0.0904 µM) | MIC ([2]; Citrobacter freundii): 0.0149 µg/mL (≈ 0.0225 µM); MIC [14]: 0.0149 µg/mL (≈ 0.0225 µM); MIC ([16]; KPC3): 0.0149 µg/mL (≈ 0.0225 µM); MIC ([19]; SHV12): 0.0149 µg/mL (≈ 0.0225 µM)
Nc1nc(/C(=N/OC2(C(=O)O)CC3CCC(C2)O3)C(=O)N[C@H]2CON(C3(C(=O)O)C[C@H](N4Cc5cc(O)c(O)cc5C4=O)C(=O)O3)C2=O)cs1 (stereo partly drawn) [Cmpd 30, 3-({(Z)-[1-(2-amino-1,3-thiazol-4-yl)-2-({(4S)-2-[(4S)-2-carboxy-4-(5,6-dihydroxy-1-oxo-1,3-dihydro-2H-isoindol-2-yl)-5-oxooxolan-2-yl]-3-oxo-1,2-oxazolidin-4-yl}amino)-2-oxoethylidene]amino}oxy)-8-oxabicyclo[3.2.1]octane-3-carboxylic acid] | 0.5 (≈ 0.698 µM) | 4 (≈ 5.58 µM) | 1 (≈ 1.4 µM) | 4 (≈ 5.58 µM) | 8 (≈ 11.2 µM) | 1 (≈ 1.4 µM) | 0.12 (≈ 0.167 µM) | 0.5 (≈ 0.698 µM) | 8 (≈ 11.2 µM) | 0.25 (≈ 0.349 µM) | 0.25 (≈ 0.349 µM) | 0.12 (≈ 0.167 µM) | 0.03 (≈ 0.0419 µM) | 1 (≈ 1.4 µM) | 0.06 (≈ 0.0837 µM) | 4 (≈ 5.58 µM) | 4 (≈ 5.58 µM) | 1 (≈ 1.4 µM) | 0.5 (≈ 0.698 µM) | 0.5 (≈ 0.698 µM) | MIC [2, 25]: 0.12 µg/mL (≈ 0.167 µM); MIC ([14]; KPC-2, TEM-1, read-out: MIC): 0.03 µg/mL (≈ 0.0419 µM); MIC ([16]; KPC3, KPC-3, read-out: MIC): 0.12 µg/mL (≈ 0.167 µM); MIC ([19]; SHV12, SHV-12, read-out: MIC): 0.25 µg/mL (≈ 0.349 µM)
Nc1nc(/C(=N/OC2(C(=O)O)CCOCC2)C(=O)N[C@H]2CON(C3(C(=O)O)C[C@H](N4Cc5cc(O)c(O)cc5C4=O)C(=O)O3)C2=O)cs1 (stereo partly drawn) [Cmpd 29, 4-({(Z)-[1-(2-amino-1,3-thiazol-4-yl)-2-({(4S)-2-[(4S)-2-carboxy-4-(5,6-dihydroxy-1-oxo-1,3-dihydro-2H-isoindol-2-yl)-5-oxooxolan-2-yl]-3-oxo-1,2-oxazolidin-4-yl}amino)-2-oxoethylidene]amino}oxy)oxane-4-carboxylic acid] | 0.12 (≈ 0.174 µM) | 4 (≈ 5.79 µM) | 0.5 (≈ 0.724 µM) | 2 (≈ 2.9 µM) | 2 (≈ 2.9 µM) | 0.5 (≈ 0.724 µM) | 0.03 (≈ 0.0434 µM) | 0.03 (≈ 0.0434 µM) | 2 (≈ 2.9 µM) | 0.25 (≈ 0.362 µM) | 0.12 (≈ 0.174 µM) | 0.25 (≈ 0.362 µM) | 0.0149 (≈ 0.0216 µM) | 0.25 (≈ 0.362 µM) | 0.03 (≈ 0.0434 µM) | 0.5 (≈ 0.724 µM) | 2 (≈ 2.9 µM) | 0.5 (≈ 0.724 µM) | 0.25 (≈ 0.362 µM) | 0.25 (≈ 0.362 µM) | MIC [2, 25]: 0.12 µg/mL (≈ 0.174 µM); MIC ([14]; KPC-2, TEM-1, read-out: MIC): 0.0149 µg/mL (≈ 0.0216 µM); MIC ([16]; KPC3, KPC-3, read-out: MIC): 0.06 µg/mL (≈ 0.0869 µM); MIC ([19]; SHV12, SHV-12, read-out: MIC): 0.06 µg/mL (≈ 0.0869 µM)
Nc1nc(/C(=N/OC2(C(=O)O)CC3CCC(C2)O3)C(=O)N[C@H]2CON(C3(C(=O)O)C[C@H](N4C(=O)c5cc(O)c(O)cc5C4=O)C(=O)O3)C2=O)cs1 (stereo partly drawn) [Cmpd 13, 3-({(Z)-[1-(2-amino-1,3-thiazol-4-yl)-2-({(4S)-2-[(4S)-2-carboxy-4-(5,6-dihydroxy-1,3-dioxo-1,3-dihydro-2H-isoindol-2-yl)-5-oxooxolan-2-yl]-3-oxo-1,2-oxazolidin-4-yl}amino)-2-oxoethylidene]amino}oxy)-8-oxabicyclo[3.2.1]octane-3-carboxylic acid] | 0.12 (≈ 0.164 µM) | 1 (≈ 1.37 µM) | 0.12 (≈ 0.164 µM) | 0.5 (≈ 0.684 µM) | 4 (≈ 5.47 µM) | 0.12 (≈ 0.164 µM) | 0.03 (≈ 0.0411 µM) | 0.03 (≈ 0.0411 µM) | 2 (≈ 2.74 µM) | 0.06 (≈ 0.0821 µM) | 0.06 (≈ 0.0821 µM) | 0.25 (≈ 0.342 µM) | 0.25 (≈ 0.342 µM) | 0.12 (≈ 0.164 µM) | 0.0149 (≈ 0.0204 µM) | 0.25 (≈ 0.342 µM) | 1 (≈ 1.37 µM) | 0.25 (≈ 0.342 µM) | 0.12 (≈ 0.164 µM) | 0.25 (≈ 0.342 µM) | MIC [2, 25]: 0.0149 µg/mL (≈ 0.0204 µM); MIC ([14]; KPC-2, TEM-1, read-out: MIC): 0.0149 µg/mL (≈ 0.0204 µM); MIC ([16]; KPC3, KPC-3, read-out: MIC): 0.06 µg/mL (≈ 0.0821 µM); MIC ([19]; SHV12, SHV-12, read-out: MIC): 0.03 µg/mL (≈ 0.0411 µM)
Nc1nc(/C(=N/OC2(C(=O)O)COC2)C(=O)N[C@H]2CON(C3(C(=O)O)C[C@H](N4C(=O)c5cc(O)c(O)cc5C4=O)C(=O)O3)C2=O)cs1 (stereo partly drawn) [Cmpd 5, (4S)-2-[(4S)-4-{[(2Z)-2-(2-amino-1,3-thiazol-4-yl)-2-{[(3-carboxyoxetan-3-yl)oxy]imino}acetyl]amino}-3-oxo-1,2-oxazolidin-2-yl]-4-(5,6-dihydroxy-1,3-dioxo-1,3-dihydro-2H-isoindol-2-yl)-5-oxooxolane-2-carboxylic acid] | 0.12 (≈ 0.177 µM) | 0.25 (≈ 0.37 µM) | 0.25 (≈ 0.37 µM) | 4 (≈ 5.91 µM) | 2 (≈ 2.96 µM) | ≤ 0.015 | 0.03 (≈ 0.0443 µM) | 0.03 (≈ 0.0443 µM) | 1 (≈ 1.48 µM) | 0.25 (≈ 0.37 µM) | 0.06 (≈ 0.0887 µM) | 2 (≈ 2.96 µM) | 0.06 (≈ 0.0887 µM) | 0.06 (≈ 0.0887 µM) | ≤ 0.015 | 0.25 (≈ 0.37 µM) | 1 (≈ 1.48 µM) | 2 (≈ 2.96 µM) | 0.25 (≈ 0.37 µM) | 0.12 (≈ 0.177 µM) | MIC [2, 25]: 0.06 µg/mL (≈ 0.0887 µM); MIC ([14]; KPC-2, TEM-1, read-out: MIC): ≤ 0.015 µg/mL; MIC ([16]; KPC3, KPC-3, read-out: MIC): 0.03 µg/mL (≈ 0.0443 µM); MIC ([19]; SHV12, SHV-12, read-out: MIC): 0.03 µg/mL (≈ 0.0443 µM)
